We go through five sequences from paper PMC3724992, “Identification of new HLA-A*0201-restricted cytotoxic T lymphocyte epitopes from neuritin” (Journal of Neuro-Oncology, 2013).

Test [1] has as its system neuritin and HLA-A2.1 positive cells. As to the kind of experiment: In vivo immunogenicity: CTLs from immunized mice, 51Cr release assay. The following applies: HLA-A*0201/Kb mice, 100 μg peptide in IFA, boosted once a week for three times, splenocytes 7 days after immunization as effectors. Here is the method: To evaluate the levels of CTL activity, a standard 4-h ^51Cr release assay was used. Briefly, target cells were incubated with ^51Cr (100 μCi per 1 × 10^6 cells) for 2 h in a 37 °C water bath. After incubation with ^51Cr, target cells were washed three times with PBS, resuspended in RPMI-1640 medium, and mixed with effector cells at a 25:1, 50:1 or 100:1 of effector to target (E/T) ratio. Assays were performed in triplicate for each sample at each ratio in a 96-well round-bottomed plate. After a 4-h incubation, the supernatants were harvested, and the amount of released ^51Cr was measured with a gamma counter. The percent specific lysis was calculated according to the following formula:
Specific lysis = (experimental release − spontaneous release)/(maximal release − spontaneous release) × 100 %
HLA-A*0201/Kb mice were immunized with 100 μg of various peptides prepared in incomplete Freund’s adjuvant (IFA) and boosted once a week for three times. As a control, mice were injected with an IFA emulsion without peptide. 7 days after immunization, splenocytes from injected animals were cultured and used as effector cells.
Fig. 5 In vivo induction of epitope-specific CTLs in vivo. HLA-A*0201/Kb mice were immunized with 100 μg of various peptides prepared in incomplete Freund’s adjuvant (IFA) and boosted once a week for three times. As a control, mice were injected with an IFA emulsion without peptide. 7 days after immunization, splenocytes from injected animals were cultured and used as effector cells. The cytotoxic activities of CTLs were determined against target cells at various E/T ratios using ^51Cr release assay. […] Compared with controls, P < 0.05

Test [2] has as its system target cells expressing neuritin and HLA-A2.1. Put plainly: 4-h 51Cr release cytotoxicity assay of CTLs induced in vitro. The test is classed as cell-based, human. The settings on record: PBMCs from four HLA-A2.1+ donors stimulated with peptide-pulsed DCs, E/T 25:1, 50:1, 100:1, triplicate. Here is the method:
(§1) PBMCs were isolated from healthy HLA-A2+ donors by Ficoll–Hypaque density gradient centrifugation (TBC company, Tianjing, China) and then seeded into culture flasks in RPMI-1640 medium supplemented with penicillin (100 U/ml), streptomycin (100 μg/ml), and 10 % FBS. After monocytes adhered (incubation for 2 h), the nonadherent cells were collected and frozen in freeze medium (60 % RPMI-1640 and 30 % FBS, 10 % DMSO) for later use in CTL assays. The adherent cells were cultured for 5 days in RPMI-1640 containing 1,000 U/ml of granulocyte–macrophage colony-stimulating factor (R&D Systems, Inc., Minneapolis, MN) and interleukin-4 (IL-4; R&D Systems, Inc.) and were the cultured for an additional 2 days in the presence of 1,000 U/ml of tumor necrosis factor α (R&D Systems, Inc.) to induce final maturation. After 7 days of culture, the mature DCs were harvested and analyzed for DC typical phenotypes by FACS analysis.
(§2) Briefly, DCs were loaded with different peptides at a final concentration of 100 μg/ml for 4 h and were then irradiated with 20 Gy, which prevented all outgrowths in the control cultures. Autologous T cells were restimulated every 7 days with the previously mentioned peptide-pulsed DCs to generate peptide-specific CTLs. Recombinant interleukin 2 (IL-2) at a concentration of 20 U/ml was added to the culture medium on day 3 after every stimulation. Cytotoxic T lymphocyte activity was then assessed on day 23 by a 4 h ^51Cr release assay. Effectors generated from negative peptide-pulsed DCs were used as controls.
To evaluate the levels of CTL activity, a standard 4-h ^51Cr release assay was used. Briefly, target cells were incubated with ^51Cr (100 μCi per 1 × 10^6 cells) for 2 h in a 37 °C water bath. […] After a 4-h incubation, the supernatants were harvested, and the amount of released ^51Cr was measured with a gamma counter. The percent specific lysis was calculated according to the following formula: […]
Fig. 3 Specific lysis of CTLs against target cells. […] After a 4-h incubation, the supernatants were harvested, and the amount of released ^51Cr was measured with a gamma counter. […]

Test [3] concerns the target T1, HLA-A*0201/peptide complexes on T2 cells (Homo sapiens, UniProt P04439, D140Y/D185E/D98H/E176V/E277Q/G131W/G231S/I119V/I121R/I166T/I218V/L300P/L318F/N151K/N90K/P208A/P217A/Q86G/Q94H/R138H/R169H/T345S).
T1 construct: Expression of HLA-A*0201 on T2 cells was then determined; endogenous in cells; host or cells: T2 cells
Put plainly: Peptide/HLA-A*0201 complex stability on T2 cells. It counts as binding. The following applies: authors' grading of the Table 2 data. The protocol: Briefly, T2 cells (10^6/ml) were incubated overnight with the candidate peptides, respectively, at a concentration of 20 μg/ml in serum-free medium supplemented with β2-microglobulin at a concentration of 3 μg/ml at 37 °C.
Thereafter, they were washed four times to remove free peptides, incubated with Brefeldin A (10 µg/ml) for 1 h to block cell surface expression of newly synthesized HLA-A2.1 molecules, washed and incubated at 37 °C for 0, 2, 4, 6, or 8 h. Subsequently, cells were stained with anti-HLA-A2 antibody from BB7.2 cells to evaluate the HLA-A2.1 molecule expression. For each time point, peptide induced HLA-A*0201 expression was evaluated by the formula mentioned above. Dissociation complex50 (DC50) was defined as the time required for the loss of 50 % of the HLA-A*0201/peptide complexes stabilized at time = 0.

Test [4] has as its target T2, HLA-A*0201 molecules on T2 cells (Homo sapiens, UniProt P04439, D140Y/D185E/D98H/E176V/E277Q/G131W/G231S/I119V/I121R/I166T/I218V/L300P/L318F/N151K/N90K/P208A/P217A/Q86G/Q94H/R138H/R169H/T345S).
T2 construct: endogenous in cells; host or cells: T2 cells
Put plainly: Peptide-binding assay: up-regulation of HLA-A*0201 on T2 cells. The settings on record: for FI (fluorescence index): 1 × 10^6 T2 cells, 50 μM peptide, serum-free RPMI 1640, β2-microglobulin 3 μg/ml, 16 h, 37 °C, flow cytometry with anti-HLA-A2 Ab (BB7.2) and FITC secondary, mean of triplicate; for affinity to HLA-A2.1 (in words): T2 cells, authors' grading of the Table 2 data. The protocol:
To determine whether the candidate epitopes can bind to HLA-A*0201 molecules, up-regulation of peptide-induced HLA-A*0201 molecules on T2 cells was examined. Briefly, according to previous reference, 1 × 10^6 T2 cells were incubated with 50 μM of the synthesized peptides in serum-free RPMI 1640 medium supplemented with β2-microglobulin (Sigma) at a concentration of 3 μg/ml for 16 h at 37 °C, 5 % CO2 [18]. Expression of HLA-A*0201 on T2 cells was then determined with the FACS Calibur flow cytometer (Becton–Dickinson, USA), by staining with primary anti-HLA-A2 Ab derived from BB7.2 and FITC-labeled goat-antimouse IgG (BD Biosciences Pharmingen, USA) secondary antibody. The data were analyzed using Cell Quest software (Becton–Dickinson, USA). The Fluorescence index (FI) was calculated as follows: FI = (mean FITC fluorescence with the given peptide − mean FITC fluorescence without peptide)/(mean FITC fluorescence without peptide). Samples were measured in triplicate and then mean FI was calculated. An octapeptide mHpa (519–526) ([…]) derived from mouse Hpa was served negative control.
For orientation: In flow cytometry, cells or beads pass a laser one at a time.

For the next test, the system named is IFN-γ-producing T cells. As to the kind of experiment: IFN-γ ELISPOT assay of peptide-induced effectors. The settings on record: human HLA-A2+ donor T cells restimulated every 7 days with DCs pulsed with 100 μg/ml peptide; assessed on day 23; triplicate; compared to negative peptide control, P < 0.05. It counts as cell-based. Here is the method:
as §1, §2
IFN-γ secretion of effectors was assayed by enzyme-linked immunospot (ELISPOT). Multiscreen 96-well assay plates (Dakewe, Shenzhen, China) were precoated overnight at 4 °C with anti-IFN-γ antibody according to the manufacturer’s instruction. After washing with PBST (PBS-0.05 % Tween 20), plates were blocked for 1 h at 37 °C with PBS/1 % BSA. […] After being air-dried, the number of spots in each well was counted using the Bioreader 4000 PRO-X (Bio-Sys; Germany).
Fig. 2 Specific IFN-γ by ELISPOT assay. […] The IFN-γ secretion was then assessed on day 23. […]

Take ILAVQIAYL [neuritin13–21]: the “lysis of target cells by CTLs primed in immunized mice” value (“lysis of target cells by CTLs primed” for short) in test [1] is “could lyse neuritin and HLA-A2.1 positive cells with high efficiency”. For the same sequence, in test [2], the “induction of neuritin-specific CTLs that lyse target cells” value (“induction” for short) is given as “able to elicit neuritin-specific CTLs”. Also, in test [3], the “stability to HLA-A2.1 (in words)” value is on record as “high”. Also, in test [4], the “FI (fluorescence index)” value was 1.68 and the “affinity to HLA-A2.1 (in words)” value is “high”. Further, the “peptide-specific T cell response (frequency of IFN-γ-producing T cells)” value (“peptide-specific T cell response” below) with IFN-γ-producing T cells is listed as “strong peptide-specific T cell response”.

In the case of “FSYGFFVI [mHpa (519–526), reference compound]”, the “FI (fluorescence index)” value in test [4] is recorded as 0.38.

For VLLVSLSAA [neuritin127–135], the “stability to HLA-A2.1 (in words)” value in test [3] is recorded as “low”. In test [4], the “FI (fluorescence index)” value amounted to 0.68 and the “affinity to HLA-A2.1 (in words)” value is reported as “low”.

As to LLPAFPVLL [neuritin121–129], the “lysis of target cells by CTLs primed” value in test [1] is “could lyse neuritin and HLA-A2.1 positive cells with high efficiency”. Also, in test [2], the “induction” value is listed as “able to elicit neuritin-specific CTLs”. For the same sequence, in test [4], the “FI (fluorescence index)” value came out at 1.24 and the “affinity to HLA-A2.1 (in words)” value is reported as “moderate”. In the test on IFN-γ-producing T cells, the “peptide-specific T cell response” value was “strong peptide-specific T cell response”.

For the sequence KLNGRYISL [neuritin4–12], in test [1], the “lysis of target cells by CTLs primed” value was “could lyse neuritin and HLA-A2.1 positive cells with high efficiency”. For the same sequence, in test [2], the “induction” value is “able to elicit neuritin-specific CTLs”. Besides, in test [4], the “FI (fluorescence index)” value turned out to be 1.07 and the “affinity to HLA-A2.1 (in words)” value was “moderate”. Moreover, in the test on IFN-γ-producing T cells, the “peptide-specific T cell response” value is “strong peptide-specific T cell response”.
